Values of other authors in patent publication US20040005304A1, “Novel compositions and methods for treating neurological disorders and associated gastrointestinal conditions” (MAK Wood, Inc., priority 2002, published 2004).

Test system: DPPIV
Conditions: cultured mouse intestinal wall cells (enterocyte cells)

O=C[C@H](O)[C@@H](O)[C@@H](O)[C@H](O)CO [galactose]
expression of DPPIV: increase the expression of DPPIV
